Data from patent publication US20090232838A1, “Ligands of melanocortin receptors” (priority 2005, published 2009).
Where two headings read alike, the source gives them in different places.

How the values were obtained:
Format in all cases: cell-based
[1] = target: T1, hMC1-R (Homo sapiens, UniProt Q01726); test: cyclic AMP bioassay, hMC1-R
T1 construct: expressed in transfected cells; host or cells: CHO-K1
Protocol: (§1) Intracellular cyclic AMP (cAMP) levels were determined by an electrochemiluminescence (ECL) assay (Meso Scale Discovery®, Gaithersburg, Md.; referred to hereinafter as MSD). […] Transgenic CHO-K1 cells stably expressing hMC receptor subtypes 1, 3, 4 or 5 were dispensed at a density of approximately 7,000 cells/well in 384-well Multi-Arrays plates (MSD) containing integrated carbon electrodes and coated with anti-CAMP antibody. Increasing concentrations of the test compounds were added and the cells were incubated for approximately 40 minutes at approximately 37° C. […] At the end of the second incubation period read buffer (Tris-buffered solution containing an ECL co-reactant and Triton X-100 at ph 7.8) was added and the cAMP levels in the cell lysates were immediately determined by ECL detection with a Sector Imager 6000 Reader® (MSD). Data were analyzed using a computer-assisted non-linear regression analysis (XL fit; IDBS) and reported as either an EC50 value or a Kb value.
(§2) The Kb value reflects the potency of an antagonist and is determined by Schild analysis. In brief, concentration-response curves of an agonist are carried out in the presence of increasing concentrations of an antagonist. […] It is calculated by extrapolating the line on a Schild plot to zero on the y-axis.

[2] = target: T2, hMC3-R (Homo sapiens, UniProt P41968); test: cyclic AMP bioassay, hMC3-R
T2 construct: expressed in transfected cells; host or cells: CHO-K1
T2 sequence (P41968 whole entry): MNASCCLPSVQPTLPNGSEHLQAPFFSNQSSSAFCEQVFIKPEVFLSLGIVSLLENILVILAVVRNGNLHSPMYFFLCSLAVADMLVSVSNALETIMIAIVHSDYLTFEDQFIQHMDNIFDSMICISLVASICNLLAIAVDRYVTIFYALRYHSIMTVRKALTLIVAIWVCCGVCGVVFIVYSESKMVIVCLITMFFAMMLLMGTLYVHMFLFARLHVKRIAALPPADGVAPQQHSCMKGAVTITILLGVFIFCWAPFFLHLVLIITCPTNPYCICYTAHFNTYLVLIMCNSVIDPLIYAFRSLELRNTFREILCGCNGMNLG
Protocol: as §1, §2

[3] = target: T3, hMC5-R (Homo sapiens, UniProt P33032); test: cyclic AMP bioassay, hMC5-R
T3 construct: expressed in transfected cells; host or cells: CHO-K1
T3 sequence (P33032 whole entry): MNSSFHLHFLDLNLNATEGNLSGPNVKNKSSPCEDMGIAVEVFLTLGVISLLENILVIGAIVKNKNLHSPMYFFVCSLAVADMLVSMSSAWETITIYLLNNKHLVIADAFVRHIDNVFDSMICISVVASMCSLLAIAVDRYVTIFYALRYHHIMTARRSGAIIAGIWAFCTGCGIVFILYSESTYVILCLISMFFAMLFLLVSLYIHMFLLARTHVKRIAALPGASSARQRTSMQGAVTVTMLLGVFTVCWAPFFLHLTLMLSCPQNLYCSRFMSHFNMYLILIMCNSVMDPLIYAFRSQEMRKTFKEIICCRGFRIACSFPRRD
Protocol: as §1, §2

[4] = target: T4, hMC4-R (Homo sapiens, UniProt P32245); test: cyclic AMP bioassay, hMC4-R
T4 construct: expressed in transfected cells; host or cells: CHO-K1
T4 sequence (P32245 whole entry): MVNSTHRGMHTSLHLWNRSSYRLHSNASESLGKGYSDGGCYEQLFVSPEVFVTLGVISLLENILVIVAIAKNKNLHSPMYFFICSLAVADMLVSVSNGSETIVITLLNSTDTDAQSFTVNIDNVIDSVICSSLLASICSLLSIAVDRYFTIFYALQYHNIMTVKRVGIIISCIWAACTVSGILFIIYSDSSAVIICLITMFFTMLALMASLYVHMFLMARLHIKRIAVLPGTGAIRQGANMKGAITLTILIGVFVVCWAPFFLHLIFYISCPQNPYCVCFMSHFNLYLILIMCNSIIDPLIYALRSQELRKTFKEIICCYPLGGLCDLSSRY
Protocol: as §1, §2

[5] = Table 3A, cAMP in CHO-K1 cells, agonist, read-out: EC50 hMC1-R
[6] = Table 3A, cAMP in CHO-K1 cells, antagonist potency by Schild analysis, read-out: Kb hMC3-R
[7] = Table 3A, cAMP in CHO-K1 cells, agonist, read-out: EC50 hMC5-R
[8] = Table 3A, cAMP in CHO-K1 cells, antagonist potency by Schild analysis, read-out: Kb hMC4-R

T1 sequence (Q01726 whole entry): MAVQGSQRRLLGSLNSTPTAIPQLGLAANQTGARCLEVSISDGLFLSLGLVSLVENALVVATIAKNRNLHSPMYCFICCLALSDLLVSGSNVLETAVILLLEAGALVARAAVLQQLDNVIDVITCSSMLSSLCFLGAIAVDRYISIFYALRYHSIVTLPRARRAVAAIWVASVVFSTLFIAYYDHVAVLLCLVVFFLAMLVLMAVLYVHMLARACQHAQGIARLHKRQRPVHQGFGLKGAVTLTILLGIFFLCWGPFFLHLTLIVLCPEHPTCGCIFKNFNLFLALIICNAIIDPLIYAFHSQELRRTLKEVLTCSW

Row | SMILES | EC50 [1] | Kb [2] | EC50 [3] | Kb [4] | EC50 [1, 5] | Kb [2, 6] | EC50 [3, 7] | Kb [4, 8] | EC50 [2] | EC50 [4]
1 | CC(=O)N[C@H]1CSSC[C@@H](C(=O)N2CCC[C@H]2C(=O)N2CCC[C@H]2C(=O)N[C@@H](CCCCN)C(=O)N[C@@H](CC(=O)O)C(=O)NCCC(=O)N[C@@H](Cc2ccc(O)cc2)C(=O)NCC(=O)N[C@@H](CCCNC(=N)N)C(=O)N[C@@H](CCCCN)C(=O)N[C@@H](CCCCN)C(=O)N[C@@H](CCCNC(=N)N)C(=O)N[C@@H](CCCNC(=N)N)C(=O)N[C@@H](CCC(N)=O)C(=O)N[C@@H](CCCNC(=N)N)C(=O)N[C@@H](CCCNC(=N)N)C(=O)N[C@@H](CCCNC(=N)N)C(N)=O)NC(=O)[C@H](C)NC(=O)[C@H](Cc2ccc3ccccc3c2)NC(=O)[C@H](CCCNC(=N)N)NC(=O)[C@@H](Cc2ccc3ccccc3c2)NC(=O)[C@H](Cc2c[nH]cn2)NC(=O)[C@H](CCC(=O)O)NC1=O | 29.7 nM | 25.6 nM | 82.9 nM | 7.37 nM | – | – | – | – | – | –
2 | CC(=O)N[C@H]1CSSC[C@@H](C(=O)N2CCC[C@H]2C(=O)N2CCC[C@H]2C(=O)N[C@@H](CCCCN)C(=O)N[C@@H](CC(=O)O)C(=O)NCCC(=O)NCC(=O)N[C@@H](CCCNC(=N)N)C(=O)N[C@@H](CCCNC(=N)N)C(=O)N[C@@H](CCCCN)C(=O)N[C@@H](CCCNC(=N)N)C(=O)N[C@@H](CCCNC(=N)N)C(=O)N[C@@H](CCC(N)=O)C(=O)N[C@@H](CCCNC(=N)N)C(=O)N[C@@H](CCCNC(=N)N)C(=O)N[C@@H](CCCNC(=N)N)C(N)=O)NC(=O)[C@H](C)NC(=O)[C@H](Cc2cccc3ccccc23)NC(=O)[C@H](CCCNC(=N)N)NC(=O)[C@@H](Cc2ccc3ccccc3c2)NC(=O)[C@H](Cc2c[nH]cn2)NC(=O)[C@H](CCC(=O)O)NC1=O | 26.6 nM | 101 nM | 351 nM | 9.34 nM | – | – | – | – | – | –
3 | CC(=O)N[C@H]1CSSC[C@@H](C(=O)N2CCC[C@H]2C(=O)N2CCC[C@H]2C(=O)N[C@@H](CCCCN)C(=O)N[C@@H](CC(=O)O)C(=O)NCCC(=O)N[C@@H](Cc2ccc(O)cc2)C(=O)NCC(=O)N[C@@H](CCCNC(=N)N)C(=O)N[C@@H](CCCNC(=N)N)C(=O)N[C@@H](CCCCN)C(=O)N[C@@H](CCCNC(=N)N)C(=O)N[C@@H](CCCNC(=N)N)C(=O)N[C@@H](CCC(N)=O)C(=O)N[C@@H](CCCNC(=N)N)C(=O)N[C@@H](CCCNC(=N)N)C(=O)N[C@@H](CCCNC(=N)N)C(N)=O)NC(=O)[C@H](C)NC(=O)[C@H](Cc2cccc3ccccc23)NC(=O)[C@H](CCCNC(=N)N)NC(=O)[C@@H](Cc2ccc3ccccc3c2)NC(=O)[C@H](Cc2c[nH]cn2)NC(=O)[C@H](CCC(=O)O)NC1=O | 29 nM | 22.6 nM | 173 nM | 16.7 nM | – | – | – | – | – | –
4 | CC(=O)N[C@H]1CSSC[C@@H](C(=O)N2CCC[C@H]2C(=O)N2CCC[C@H]2C(=O)N[C@@H](CCCCN)C(=O)N[C@@H](CC(=O)O)C(=O)NCCC(=O)N[C@@H](Cc2ccc(O)cc2)C(=O)NCC(=O)N[C@@H](CCCNC(=N)N)C(=O)N[C@@H](CCCCN)C(=O)N[C@@H](CCCCN)C(=O)N[C@@H](CCCNC(=N)N)C(=O)N[C@@H](CCCNC(=N)N)C(=O)N[C@@H](CCCNC(=N)N)C(=O)N[C@@H](CCC(N)=O)C(=O)N[C@@H](CCCNC(=N)N)C(=O)N[C@@H](CCCNC(=N)N)C(N)=O)NC(=O)[C@H](C)NC(=O)[C@H](Cc2c[nH]c3ccccc23)NC(=O)[C@H](CCCNC(=N)N)NC(=O)[C@@H](Cc2ccc3ccccc3c2)NC(=O)[C@H](Cc2c[nH]cn2)NC(=O)[C@H](CCC(=O)O)NC1=O | – | – | – | – | 16.4 nM | 20.8 nM | 44.2 nM | 7.31 nM | – | –
5 | CCCC[C@H](NC(C)=O)C(=O)N[C@H]1CSSC[C@@H](C(=O)NCCC(=O)N[C@@H](Cc2ccc(O)cc2)C(=O)NCC(=O)N[C@@H](CCCNC(=N)N)C(=O)N[C@@H](CCCNC(=N)N)C(=O)N[C@@H](CCCCN)C(=O)N[C@@H](CCCNC(=N)N)C(=O)N[C@@H](CCCNC(=N)N)C(=O)N[C@@H](CCC(N)=O)C(=O)N[C@@H](CCCNC(=N)N)C(=O)N[C@@H](CCCNC(=N)N)C(=O)N[C@@H](CCCNC(=N)N)C(N)=O)NC(=O)[C@H](Cc2c[nH]c3ccccc23)NC(=O)[C@H](CCCNC(=N)N)NC(=O)[C@@H](Cc2ccccc2)NC(=O)[C@H](Cc2c[nH]cn2)NC(=O)[C@@H](C)NC1=O | 5.66 nM | – | 1550 nM | – | – | – | – | – | 4.7 nM | 0.422 nM
6 | CC(=O)N[C@H]1CSSC[C@@H](C(=O)N2CCC[C@H]2C(=O)N2CCC[C@H]2C(=O)N[C@@H](CCCCN)C(=O)N[C@@H](CC(=O)O)C(=O)NCCC(=O)NCC(=O)N[C@@H](CCCNC(=N)N)C(=O)N[C@@H](CCCNC(=N)N)C(=O)N[C@@H](CCCCN)C(=O)N[C@@H](CCCNC(=N)N)C(=O)N[C@@H](CCCNC(=N)N)C(=O)N[C@@H](CCC(N)=O)C(=O)N[C@@H](CCCNC(=N)N)C(=O)N[C@@H](CCCNC(=N)N)C(=O)N[C@@H](CCCNC(=N)N)C(N)=O)NC(=O)[C@H](C)NC(=O)[C@H](Cc2ccc3ccccc3c2)NC(=O)[C@H](CCCNC(=N)N)NC(=O)[C@@H](Cc2ccc3ccccc3c2)NC(=O)[C@H](Cc2c[nH]cn2)NC(=O)[C@H](CCC(=O)O)NC1=O | 45.4 nM | 12.7 nM | 162 nM | 12.7 nM | – | – | – | – | – | –
7 | CCCC[C@H](NC(C)=O)C(=O)N[C@H]1CC(=O)NCCCC[C@@H](C(=O)NCCC(=O)NCCC(=O)N[C@@H](Cc2ccc(O)cc2)C(=O)NCC(=O)N[C@@H](CCCNC(=N)N)C(=O)N[C@@H](CCCCN)C(=O)N[C@@H](CCCCN)C(=O)N[C@@H](CCCNC(=N)N)C(=O)N[C@@H](CCCNC(=N)N)C(=O)N[C@@H](CCC(N)=O)C(=O)N[C@@H](CCCNC(=N)N)C(=O)N[C@@H](CCCNC(=N)N)C(=O)N[C@@H](CCCNC(=N)N)C(N)=O)NC(=O)[C@H](Cc2c[nH]c3ccccc23)NC(=O)[C@H](CCCNC(=N)N)NC(=O)[C@@H](Cc2ccc3ccccc3c2)NC(=O)[C@H](Cc2c[nH]cn2)NC1=O | – | – | – | – | 1.39 nM | 16.2 nM | 0.839 nM | 7.94 nM | – | –
8 | CC(=O)N[C@H]1CSSC[C@@H](C(=O)N2CCC[C@H]2C(=O)N2CCC[C@H]2C(=O)N[C@@H](CCCCN)C(=O)N[C@@H](CC(=O)O)C(=O)NCCC(=O)N[C@@H](CCCNC(=N)N)C(=O)N[C@@H](CCCNC(=N)N)C(=O)N[C@@H](CCCNC(=N)N)C(=O)N[C@@H](CCCNC(=N)N)C(=O)N[C@@H](CCCNC(=N)N)C(=O)N[C@@H](CCCNC(=N)N)C(=O)N[C@@H](CCC(N)=O)C(=O)N[C@@H](CCCNC(=N)N)C(=O)N[C@@H](CCCNC(=N)N)C(=O)N[C@@H](CCCNC(=N)N)C(N)=O)NC(=O)[C@H](C)NC(=O)[C@H](Cc2cccc3ccccc23)NC(=O)[C@H](CCCNC(=N)N)NC(=O)[C@@H](Cc2ccc3ccccc3c2)NC(=O)[C@H](Cc2c[nH]cn2)NC(=O)[C@H](CCC(=O)O)NC1=O | 93 nM | 71 nM | > 10000 nM | 15.9 nM | – | – | – | – | – | –
9 | CCCC[C@H](NC(C)=O)C(=O)N[C@H]1CC(=O)NCCCC[C@@H](C(=O)NCCOCCOCC(=O)NCCOCCOCC(=O)N[C@@H](Cc2ccc(O)cc2)C(=O)NCC(=O)N[C@@H](CCCNC(=N)N)C(=O)N[C@@H](CCCCN)C(=O)N[C@@H](CCCCN)C(=O)N[C@@H](CCCNC(=N)N)C(=O)N[C@@H](CCCNC(=N)N)C(=O)N[C@@H](CCC(N)=O)C(=O)N[C@@H](CCCNC(=N)N)C(=O)N[C@@H](CCCNC(=N)N)C(=O)N[C@@H](CCCNC(=N)N)C(N)=O)NC(=O)[C@H](Cc2c[nH]c3ccccc23)NC(=O)[C@H](CCCNC(=N)N)NC(=O)[C@@H](Cc2ccc3ccccc3c2)NC(=O)[C@H](Cc2c[nH]cn2)NC1=O | – | – | – | – | 3.23 nM | 8.97 nM | 2.86 nM | 4.61 nM | – | –
10 | CC(=O)N[C@H]1CSSC[C@@H](C(=O)N2CCC[C@H]2C(=O)N2CCC[C@H]2C(=O)N[C@@H](CCCCN)C(=O)N[C@@H](CC(=O)O)C(=O)NCCC(=O)N[C@@H](CCCNC(=N)N)C(=O)N[C@@H](CCCNC(=N)N)C(=O)N[C@@H](CCCCN)C(=O)N[C@@H](CCCNC(=N)N)C(=O)N[C@@H](CCCNC(=N)N)C(=O)N[C@@H](CCC(N)=O)C(=O)N[C@@H](CCCNC(=N)N)C(=O)N[C@@H](CCCNC(=N)N)C(=O)N[C@@H](CCCNC(=N)N)C(N)=O)NC(=O)[C@H](C)NC(=O)[C@H](Cc2ccc3ccccc3c2)NC(=O)[C@H](CCCNC(=N)N)NC(=O)[C@@H](Cc2ccc3ccccc3c2)NC(=O)[C@H](Cc2c[nH]cn2)NC(=O)[C@H](CCC(=O)O)NC1=O | 88.2 nM | 10.6 nM | 514 nM | 17.4 nM | – | – | – | – | – | –
11 | CCCC[C@H](NC(C)=O)C(=O)N[C@H]1CSSC[C@@H](C(=O)NCCC(=O)N[C@@H](CCCNC(=N)N)C(=O)N[C@@H](CCCNC(=N)N)C(=O)N[C@@H](CCCNC(=N)N)C(=O)N[C@@H](CCCNC(=N)N)C(=O)N[C@@H](CCCNC(=N)N)C(=O)N[C@@H](CCC(N)=O)C(=O)N[C@@H](CCCNC(=N)N)C(=O)N[C@@H](CCCNC(=N)N)C(=O)N[C@@H](CCCNC(=N)N)C(N)=O)NC(=O)[C@H](Cc2c[nH]c3ccccc23)NC(=O)[C@H](CCCNC(=N)N)NC(=O)[C@@H](Cc2ccccc2)NC(=O)[C@H](Cc2c[nH]cn2)NC(=O)[C@@H](C)NC1=O | 7.15 nM | – | 1570 nM | – | – | – | – | – | 9.37 nM | 1.25 nM
12 | CC(=O)N[C@H]1CSSC[C@@H](C(=O)N2CCC[C@H]2C(=O)N2CCC[C@H]2C(=O)N[C@@H](CCCCN)C(=O)N[C@@H](CC(=O)O)C(=O)NCCC(=O)N[C@@H](CCCNC(=N)N)C(=O)N[C@@H](CCCCN)C(=O)N[C@@H](CCCNC(=N)N)C(=O)N[C@@H](CCCNC(=N)N)C(=O)N[C@@H](CCCNC(=N)N)C(=O)N[C@@H](CCC(N)=O)C(=O)N[C@@H](CCCNC(=N)N)C(=O)N[C@@H](CCCNC(=N)N)C(=O)N[C@@H](CCCNC(=N)N)C(N)=O)NC(=O)[C@H](C)NC(=O)[C@H](Cc2ccc3ccccc3c2)NC(=O)[C@H](CCCNC(=N)N)NC(=O)[C@@H](Cc2ccc3ccccc3c2)NC(=O)[C@H](Cc2c[nH]cn2)NC(=O)[C@H](CCC(=O)O)NC1=O | 23.7 nM | 9.22 nM | 39.7 nM | 5.87 nM | – | – | – | – | – | –
